This is an account of results in US20250228239A1, “MOLECULES HAVING PESTICIDAL UTILITY, AND INTERMEDIATES, COMPOSITIONS, AND PROCESSES, RELATED THERETO” (priority 2024, published 2025).

Holding throughout (type): in vivo
In assay [1] the test system is Cabbage Looper (Trichoplusia ni, TRIPNI). The experiment in a line: Bioassays on Cabbage Looper (CL), 128-well diet tray assay. The following applies: Trichoplusia ni. In outline: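 Test molecule was dissolved in 90:10 acetone-water, applied to artificial diet at 50 μg/cm^2 and allowed to dry. Second-instar larvae were then added, one to five per well, and trays held at 25° C for five to seven days before mortality was scored and averaged.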

For assay [2], the system named is Yellow Fever Mosquito (Aedes aegypti, AEDSAE). As to conditions: for YFM rating: Table ABC / ABC-DP rating. In outline:
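Rating-scale grades reflect larval mortality scored per well after 3 days at room temperature under non-evaporative lids. Larvae (~1 day old, hatched overnight in liver-powder water) were added to six daughter plates per compound, prepared from a 4000 ppm DMSO stock diluted in 90:10 water/acetone.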

For assay [3], the system named is Beet Armyworm (Spodoptera exigua, LAPHEG). Put plainly: Bioassays on Beet Armyworm (BAW), 128-well diet tray assay. As to conditions: Spodoptera exigua. In outline: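 Second-instar larvae, one to five per well, were placed on artificial diet surface-treated with 50 μg/cm^2 compound in 90:10 acetone-water, eight wells per treatment. Trays were held 5–7 days at 25 °C, 14:10 light-dark. Percent mortality per well was averaged over eight wells.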

Assay [4] has as its system Green Peach Aphid (Myzus persicae, MYZUPE). The experiment in a line: Bioassays on Green Peach Aphid (GPA), foliar spray on cabbage seedlings. The following applies: 72 h. In outline: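 Percent control (Abbott-corrected versus solvent-sprayed plants) comes from live-aphid counts three days after treatment at about 25° C. Test solution at 200 ppm was sprayed to runoff onto both leaf surfaces of cabbage seedlings infested a day earlier with 20-50 aphids; four replicate pots.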

The mark [5] stands for this setting: Cabbage Looper, Table ABC / ABC-DP rating, read-out: CL rating.
Setting [6] is: Beet Armyworm, Table ABC / ABC-DP rating, read-out: BAW rating.
The mark [7] stands for this setting: Green Peach Aphid, Table ABC / ABC-DP rating, read-out: GPA rating.
Where [8] appears, read: Table ABC: Biological Results, species CL, read-out: CL.
Setting [9] is: Table ABC: Biological Results, species YFM.
The mark [10] stands for this setting: Table ABC: Biological Results, species BAW, read-out: BAW.
[11] abbreviates: Table ABC: Biological Results, species GPA, read-out: GPA.
Setting [12] is: Cabbage Looper, rating class, read-out: CL.
The mark [13] stands for this setting: Yellow Fever Mosquito, rating class.
Where [14] appears, read: Beet Armyworm, rating class, read-out: BAW.
The mark [15] stands for this setting: Green Peach Aphid, rating class, read-out: GPA.

Molecules are shown by their SMILES. Where two headings read alike, the source gives them in different places.

As to `O=C(CCCNC(=O)c1cc(NC(=O)[C@H]2[C@H](c3cc(Cl)cc(Cl)c3)C2(Cl)Cl)ccc1Cl)NCC(F)(F)F` (relative stereo) [F2080, trans-2-Chloro-5-(2,2-dichloro-3-(3,5-dichlorophenyl)cyclopropane-1-carboxamido)-N-(4-oxo-4-(2,2,2-trifluoroethylamino)butyl)benzamide], the pest or weed control at 50 µg/cm2 in assay [1] (setting [5]) and in assay [3] (setting [6]) was 50 to 100% each time. In assay [2] (Yellow Fever Mosquito), the YFM rating entry was “B (More than 0 – Less than 80)”. In assay [4] (setting [7]), the pest or weed control at 200 µg/mL lay within 0 to 80%.
For the molecule `Nc1ccc(F)c(NC(=O)c2cc(NC(=O)[C@H]3[C@H](c4cc(Cl)cc(Cl)c4)C3(Cl)Cl)ccc2Cl)c1F` [F1227, N-(3-Amino-2,6-difluorophenyl)-2-chloro-5-((1R,3R)-2,2-dichloro-3-(3,5-dichlorophenyl)cyclopropane-1-carboxamido)benzamide], the pest or weed control at 50 µg/cm2 in assay [1] (setting [8]) and in assay [3] (setting [10]) was 50 to 100% each time. Besides, the YFM entry in assay [2] (setting [9]) is recorded as “A (80–100)”. In addition, in assay [4] (setting [11]), the pest or weed control at 200 µg/mL was 0 to 80%.
Consider `CC(C)(C)OC(=O)Nc1cc(NC(=O)c2cc(NC(=O)[C@H]3[C@H](c4ccc(F)c(C(F)(F)F)c4)C3(Cl)Cl)ccc2Cl)c(F)c(F)c1F` [F1736, tert-Butyl (5-(2-chloro-5-((1R,3R)-2,2-dichloro-3-(4-fluoro-3-(trifluoromethyl)phenyl)cyclopropane-1-carboxamido)benzamido)-2,3,4-trifluorophenyl)carbamate], for which the pest or weed control at 50 µg/cm2 in assay [1] (setting [12]) and in assay [3] (setting [14]) was 50 to 100% each time. In addition, in assay [2] (setting [13]), the YFM entry is reported as “A (80–100)”. For the same molecule, the pest or weed control at 200 µg/mL in assay [4] (setting [15]) was 0 to 80%.
Turning to `CN(C(=O)C(F)F)c1c(F)ccc(NC(=O)c2cc(NC(=O)[C@H]3[C@H](c4ccc(F)c(C(F)(F)F)c4)C3(Cl)Cl)ccc2Cl)c1F` [F1386, 2-Chloro-5-((1R,3R)-2,2-dichloro-3-(4-fluoro-3-(trifluoromethyl)phenyl)cyclopropane-1-carboxamido)-N-(3-(2,2-difluoro-N-methylacetamido)-2,4-difluorophenyl)benzamide], the pest or weed control at 50 µg/cm2 in assay [1] (setting [8]) and in assay [3] (setting [10]) was 50 to 100% each time. The YFM result in assay [2] (setting [9]) was “A (80–100)”. The pest or weed control at 200 µg/mL in assay [4] (setting [11]) lay in the range of 0 to 80%.
For the molecule `O=C(CC(F)(F)F)Nc1c(F)ccc(NC(=O)c2cc(NC(=O)[C@H]3[C@H](c4cc(F)cc(C(F)(F)F)c4)C3(Cl)Cl)ccc2Cl)c1F` [F1710, 2-Chloro-5-((1R,3R)-2,2-dichloro-3-(3-fluoro-5-(trifluoromethyl)phenyl)cyclopropane-1-carboxamido)-N-(2,4-difluoro-3-(3,3,3-trifluoropropanamido)phenyl)benzamide], the pest or weed control at 50 µg/cm2 in assay [1] (setting [12]) and in assay [3] (setting [14]) was 50 to 100% throughout. In assay [2] (setting [13]), the YFM entry is on record as “A (80–100)”. In assay [4] (setting [15]), the pest or weed control at 200 µg/mL lay within 0 to 80%.
For `Nc1c(F)ccc(NC(=O)c2cc(NC(=O)[C@H]3[C@H](c4cccc(C(F)(F)F)c4)C3(Cl)Cl)ccc2Cl)c1F` [F1666, N-(3-Amino-2,4-difluorophenyl)-2-chloro-5-((1R,3R)-2,2-dichloro-3-(3-(trifluoromethyl)phenyl)cyclopropane-1-carboxamido)benzamide], the pest or weed control at 50 µg/cm2 in assay [1] (setting [12]) and in assay [3] (setting [14]) was 50 to 100% in each case. Further, in assay [2] (setting [13]), the YFM result was “B (More than 0 – Less than 80)”. Besides, the pest or weed control at 200 µg/mL in assay [4] (setting [15]) fell in the range of 80 to 100%.
As for `Nc1c(F)ccc(NC(=O)c2cc(NC(=O)[C@H]3[C@H](c4ccc(Cl)cc4)C3(Cl)Cl)ccc2Cl)c1F` (relative stereo) [F1593, trans-N-(3-Amino-2,4-difluorophenyl)-2-chloro-5-(2,2-dichloro-3-(4-chlorophenyl)cyclopropane-1-carboxamido)benzamide], the pest or weed control at 50 µg/cm2 in assay [1] (setting [12]) and in assay [3] (setting [14]) was 50 to 100% each time. In assay [2] (setting [13]), the YFM result is given as “A (80–100)”. Besides, in assay [4] (setting [15]), the pest or weed control at 200 µg/mL was in the range of 80 to 100%.
Regarding `O=C(NCCF)c1c(F)ccc(NC(=O)[C@H]2[C@H](c3ccc(F)c(Cl)c3)C2(Cl)Cl)c1F` (relative stereo) [F2027, trans-3-(2,2-Dichloro-3-(3-chloro-4-fluorophenyl)cyclopropane-1-carboxamido)-2,6-difluoro-N-(2-fluoroethyl)benzamide], the pest or weed control at 50 µg/cm2 in assay [1] (setting [5]) and in assay [3] (setting [6]) was 50 to 100% each time. For the same molecule, in assay [2] (Yellow Fever Mosquito), the YFM rating entry is listed as “A (80–100)”. In addition, the pest or weed control at 200 µg/mL in assay [4] (setting [7]) was 80 to 100%.
Regarding `CN(C(=O)C(F)(F)C(F)(F)F)c1c(F)ccc(NC(=O)c2cc(NC(=O)[C@H]3[C@H](c4ccc(Cl)c(Cl)c4)C3(Cl)Cl)ccc2Cl)c1F` [F1615, 2-Chloro-5-((1R,3R)-2,2-dichloro-3-(3,4-dichlorophenyl)cyclopropane-1-carboxamido)-N-(2,4-difluoro-3-(2,2,3,3,3-pentafluoro-N-methylpropanamido)phenyl)benzamide], the pest or weed control at 50 µg/cm2 in assay [1] (setting [12]) and in assay [3] (setting [14]) was 50 to 100% each time. Besides, the YFM entry in assay [2] (setting [13]) is given as “A (80–100)”. Further, the pest or weed control at 200 µg/mL in assay [4] (setting [15]) lay within 0 to 80%.
In the case of `O=C(NCC(F)(F)F)c1c(F)ccc(NC(=O)[C@H]2[C@H](c3ccc(F)c(Cl)c3)C2(Cl)Cl)c1F` (relative stereo) [F2017, trans-3-(2,2-Dichloro-3-(3-chloro-4-fluorophenyl)cyclopropane-1-carboxamido)-2,6-difluoro-N-(2,2,2-trifluoroethyl)benzamide], the pest or weed control at 50 µg/cm2 in assay [1] (setting [5]) and in assay [3] (setting [6]) was 50 to 100% in each case. In addition, the YFM rating result in assay [2] (Yellow Fever Mosquito) is reported as “A (80–100)”. Besides, the pest or weed control at 200 µg/mL in assay [4] (setting [7]) lay within 80 to 100%.
Turning to `Cc1cc(NC(=O)[C@H]2[C@H](c3ccc(F)c(Cl)c3)C2(Cl)Cl)cc(C(=O)Nc2ccc(F)cc2F)c1Cl` (relative stereo) [F1185, trans-2-Chloro-5-(2,2-dichloro-3-(3-chloro-4-fluorophenyl)cyclopropane-1-carboxamido)-N-(2,4-difluorophenyl)-3-methylbenzamide], the pest or weed control at 50 µg/cm2 in assay [1] (setting [8]) and in assay [3] (setting [10]) was 50 to 100% in each case. In assay [2] (setting [9]), the YFM entry is “A (80–100)”. For the same molecule, the pest or weed control at 200 µg/mL in assay [4] (setting [11]) lay in the range of 80 to 100%.
`CCCOC(C)C(=O)Nc1c(F)ccc(NC(=O)c2cc(NC(=O)[C@H]3[C@H](c4ccc(F)c(C(F)(F)F)c4)C3(Cl)Cl)ccc2Cl)c1F` (stereo partly drawn) [F1739, 2-Chloro-5-((1R,3R)-2,2-dichloro-3-(4-fluoro-3-(trifluoromethyl)phenyl)cyclopropane-1-carboxamido)-N-(2,4-difluoro-3-(2-propoxypropanamido)phenyl)benzamide]: the pest or weed control at 50 µg/cm2 in assay [1] (setting [12]) and in assay [3] (setting [14]) was 50 to 100% in each case. The YFM result in assay [2] (setting [13]) is “A (80–100)”. Moreover, in assay [4] (setting [15]), the pest or weed control at 200 µg/mL was 0 to 80%.
As for `CN(C(=O)CC#N)c1c(F)ccc(NC(=O)c2cc(NC(=O)[C@H]3[C@H](c4ccc(Cl)c(Cl)c4)C3(Cl)Cl)ccc2Cl)c1F` [F1617, 2-Chloro-N-(3-(2-cyano-N-methylacetamido)-2,4-difluorophenyl)-5-((1R,3R)-2,2-dichloro-3-(3,4-dichlorophenyl)cyclopropane-1-carboxamido)benzamide], the pest or weed control at 50 µg/cm2 in assay [1] (setting [12]) and in assay [3] (setting [14]) was 50 to 100% in each case. Moreover, the YFM entry in assay [2] (setting [13]) is recorded as “A (80–100)”. Besides, the pest or weed control at 200 µg/mL in assay [4] (setting [15]) lay in the range of 0 to 80%.
For the molecule `CCC(C)C(=O)Nc1c(F)ccc(NC(=O)c2cc(NC(=O)[C@H]3[C@H](c4ccc(F)c(C(F)(F)F)c4)C3(Cl)Cl)ccc2Cl)c1F` (stereo partly drawn) [F1642, 2-Chloro-5-((1R,3R)-2,2-dichloro-3-(4-fluoro-3-(trifluoromethyl)phenyl)cyclopropane-1-carboxamido)-N-(2,4-difluoro-3-(2-methylbutanamido)phenyl)benzamide], the pest or weed control at 50 µg/cm2 in assay [1] (setting [12]) and in assay [3] (setting [14]) was 50 to 100% each time. In addition, in assay [2] (setting [13]), the YFM entry is “A (80–100)”. Besides, the pest or weed control at 200 µg/mL in assay [4] (setting [15]) was 0 to 80%.
On to `O=C(CC(F)(F)F)Nc1c(F)ccc(NC(=O)c2cc(NC(=O)[C@H]3[C@H](c4ccc(F)c(Cl)c4)C3(Cl)Cl)ccc2Cl)c1F` [F1701, 2-Chloro-5-((1R,3R)-2,2-dichloro-3-(3-chloro-4-fluorophenyl)cyclopropane-1-carboxamido)-N-(2,4-difluoro-3-(3,3,3-trifluoropropanamido)phenyl)benzamide], for which the pest or weed control at 50 µg/cm2 in assay [1] (setting [12]) and in assay [3] (setting [14]) was 50 to 100% each time. For the same molecule, the YFM result in assay [2] (setting [13]) is “B (More than 0 – Less than 80)”. Further, the pest or weed control at 200 µg/mL in assay [4] (setting [15]) lay within 80 to 100%.
